# Biological target: T1, GPX4 (Homo sapiens, UniProt P36969)
# T1 sequence (P36969 1-170 isoform P36969-2): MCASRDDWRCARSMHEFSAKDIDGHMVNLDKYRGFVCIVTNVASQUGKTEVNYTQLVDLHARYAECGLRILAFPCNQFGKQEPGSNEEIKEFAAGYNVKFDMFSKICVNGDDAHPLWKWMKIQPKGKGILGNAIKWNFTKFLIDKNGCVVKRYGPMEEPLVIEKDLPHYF
# Assay: GPX4 activity assay in cell lysates (NADPH-coupled)
# Type: biochemical
# Set-up: endogenous in cells; host or cells: A-673 cell lysate
# Details: not given
# Method: Determination of GPX4 activity in cell lysates was performed as previously described by Roveri et al. 1994 with minor modifications. Briefly, the assay measures the consumption of NADPH, which has a characteristic absorbance at 340 nm, over time as a proxy for GPX4 activity. The rationale for this is that as GPX4 reduces phospholipid hydroperoxides, it oxidizes glutathione, which is then regenerated by glutathione reductase at the expense of NADPH. NADPH is added to the assay in excess such that the reduction of oxidized glutathione is not the rate-limiting reaction in the assay. Thus, the resulting reduction in NADPH absorbance over time reflects GPX4 activity.
# The GPX4-specific substrate phosphatidylcholine hydroperoxide (PCOOH) was prepared by enzymatic hydroperoxidation. Specifically, 0.3 mM phosphatidylcholines (Sigma-Aldrich) were incubated with 0.7 mg soybean lipoxidase type IV (Sigma-Aldrich) in 22 mL of 0.2 M Tris-HCl pH 8.8 with 3 mM sodium deoxycholate at room temperature under continuous stirring for 30 minutes. A Sep-Pak C18 cartridge (Waters-Millipore) was pre-washed with methanol and equilibrated with water, then the substrate mixture was loaded. The column was washed with 10 volumes of water and PCOOH was eluted with 2 mL of methanol.
# To prepare the cell lysate containing native GPX4, A-673 cells were cultured with 20 nM sodium selenite to confluency over two days then harvested and washed with cold PBS. Cells were then resuspended at 10 million cells per 1 mL LCW lysis buffer (0.5% peroxide-free Triton X-100, 0.5% sodium deoxycholate salt, 150 mM NaCl, 20 mM Tris-HCl pH 7.5, 10 mM EDTA, 30 mM sodium pyrophosphate, and complete protease inhibitor cocktail), vortexed for 30 seconds, and incubated on ice for 15 minutes. After lysis, the lysates were centrifuged at 14,000×g and 4° C. for 15 minutes. The supernatants were transferred to new pre-chilled tube and the debris pellet was discarded. The protein concentration in the lysate was determined for normalization using the BCA Protein Assay Kit (Pierce).
# To measure GPX4 activity, 50 μL of cell lysate was combined with 200 μL activity assay buffer (0.1% Triton X-100, 100 mM Tris-HCl pH 8.0, 10 mM sodium azide, 5 mM EDTA, 0.6 IU/mL glutathione reductase, 0.5 mM NADPH and 3 mM GSH) and compounds of interest in a clear 96-well plate and incubated at 37° C. for 45 minutes. Compounds were dissolved in DMSO. All conditions were tested in triplicate. PCOOH substrate was added to the mixture to initiate GPX4 activity just before reading the plate. The absorbance of NADPH at 340 nm was monitored kinetically over time for 25 minutes. Buffer-only controls and controls without substrate containing only the methanol vehicle were performed to assess background and baseline signal. GPX4 activity was calculated as previously reported by Stolwijk et al. 2020 and results were analyzed in GraphPad Prism 9.
row,Structure (SMILES),"GPX4 inhibitory activity, result in words"
1,CC(C)(COC(=O)CCl)NC(=O)c1n[nH]c2cc(-c3ccc(N4CCOCC4)c(Cl)c3)ccc12 [QW-583],slight loss of inhibitory activity
2,CC(C)Oc1ccc(-c2ccc3c(C(=O)NC(C)(C)COC(=O)CCl)nn(C)c3c2)cn1 [QW-720],substantially higher GPX4 inhibitory activities than QW-446

# Same assay, conditions: 2.5 μM
row,Structure (SMILES),GPX4% inhibition at 2.5 μM [%]
1,Cn1nc(C(=O)NC(C)(C)COC(=O)CCl)c2ccc(-c3cccc(C=O)c3)cc21 [QW-599],51.0 ± 4.4
2,Cn1nc(C(=O)NC(C)(C)COC(=O)CCl)c2ccc(-c3ccc(Br)cc3)cc21 [QW-603],45.5 ± 4.4
3,COc1ccc(-c2ccc3c(C(=O)NC(C)(C)COC(=O)CBr)nn(C)c3c2)cc1Cl [QW-608],72.2 ± 5.9
4,C=CC(=O)OCC(C)(C)NC(=O)c1nn(C)c2cc(-c3ccc(OC)c(Cl)c3)ccc12 [QW-609],6.7 ± 11.9
5,COc1ccc(-c2ccc3c(C(=O)NC(C)(C)COC(=O)CCl)nn(C)c3c2)cc1Br [QW-611],81.5 ± 1.9
6,COc1ccc(-c2ccc3c(C(=O)NC(C)(C)COC(=O)C#C[Si](C)(C)C)nn(C)c3c2)cc1Cl [QW-612],−5.7 ± 11.7
7,CN1CCN(Cc2ccc(-c3ccc4c(C(=O)NC(C)(C)COC(=O)CCl)nn(C)c4c3)cc2)CC1 [QW-617],80.9 ± 3.4
8,Cn1nc(C(=O)NC(C)(C)COC(=O)CCl)c2ccc(-c3ccc(NS(C)(=O)=O)cc3)cc21 [QW-618],18.1 ± 5.9
9,Cn1nc(C(=O)NC(C)(C)COC(=O)CCl)c2ccc(-c3ccc(C(=O)N4CCN(C(=O)OC(C)(C)C)CC4)cc3)cc21 [QW-619],42.6 ± 8.0
10,C=C(C)C(=O)Nc1ccc(-c2ccc3c(C(=O)NC(C)(C)COC(=O)CCl)nn(C)c3c2)cc1 [QW-620],63.8 ± 7.8
11,Cn1nc(C(=O)NC(C)(C)CNC(=O)CCl)c2ccc(-c3ccc(N4CCOCC4)c(Cl)c3)cc21 [QW-629],14.9 ± 16.7
12,CSc1ccc(-c2ccc3c(C(=O)NC(C)(C)CNC(=O)CCl)nn(C)c3c2)cc1Cl [QW-631],14.3 ± 16.5
13,COC(=O)c1ccc(-c2ccc3c(C(=O)NC(C)(C)CNC(=O)CCl)nn(C)c3c2)cc1Cl [QW-632],−4.9 ± 21.8
14,CC(C)Oc1ccc(-c2ccc3c(C(=O)NC(C)(C)CNC(=O)CCl)nn(C)c3c2)cc1Cl [QW-635],14.0 ± 15.4
15,Cn1nc(C(=O)NC(C)(C)CNC(=O)CCl)c2ccc(-c3ccc(Cl)c(Cl)c3)cc21 [QW-636],50.2 ± 22.0
16,CC=CC(=O)OCC(C)(C)NC(=O)c1nn(C)c2cc(-c3ccc(OC)c(Cl)c3)ccc12 [QW-644],31.4 ± 18.5
17,COC(=O)C=CC(=O)OCC(C)(C)NC(=O)c1nn(C)c2cc(-c3ccc(OC)c(Cl)c3)ccc12 [QW-646],52.0 ± 27.0

row,Structure (SMILES),GPX4% inhibition at 2.5 μM [%]
1,CN(C)CCCOc1ccc(-c2ccc3c(C(=O)NC(C)(C)COC(=O)CCl)nn(C)c3c2)cc1 [QW-647],46.9 ± 35.9
2,Cn1nc(C(=O)NC(C)(C)COC(=O)CCl)c2ccc(-c3cc4cc(F)ccc4n3C(=O)OC(C)(C)C)cc21 [QW-659],−1.2 ± 15.2
3,COc1ccc(-c2ccc3c(C(=O)N4CCC(OC(=O)CCl)C4(C)C)nn(C)c3c2)cc1Cl (centres unmarked) [QW-676],22.9 ± 12.1
4,CCOc1ccc(-c2ccc3c(-n4cc(C(C)(C)COC(=O)CCl)nn4)nn(C)c3c2)cc1Cl [QW-681],31.0 ± 4.9
5,Cn1nc(C(=O)NC(COC(=O)CCl)C(F)(F)F)c2ccc(-c3ccc(N4CCOCC4)c(Cl)c3)cc21 (centres unmarked) [QW-687],7.9 ± 2.3
6,Cn1nc(C(=O)N2CCC(OC(=O)CCl)C2(C)C)c2ccc(-c3ccc(N4CCOCC4)c(Cl)c3)cc21 (centres unmarked) [QW-691],30.5 ± 7.4
7,COc1ccc(-c2ccc3c(-c4nnc(C(C)(OC(=O)CCl)C(F)(F)F)o4)nn(C)c3c2)cc1Cl (centres unmarked) [QW-699],2.4 ± 17.3
8,Cn1nc(-c2nnc(C(C)(OC(=O)CCl)C(F)(F)F)o2)c2ccc(-c3ccc(N4CCOCC4)c(Cl)c3)cc21 (centres unmarked) [QW-700],−2.2 ± 5.0
9,Cn1nc(C(=O)N2CCC(OC(=O)CCl)C2(C)C)c2ccc(-c3ccc4c(c3)OCO4)cc21 (centres unmarked) [QW-702],23.8 ± 3.7
10,Cn1nc(C(=O)NC(C)(C)COC(=O)CCl)c2ccc(-c3ccc(OCC(F)(F)F)cc3)cc21 [QW-719],2.4 ± 17.3
11,CC(C)Oc1ccc(-c2ccc3c(C(=O)NC(C)(C)COC(=O)CCl)nn(C)c3c2)cn1 [QW-720],76.9 ± 4.2
12,COc1ccc(-c2ccc3c(NC(=O)C(C)(C)COC(=O)CCl)nn(C)c3c2)cc1Cl [QW-722],−2.2 ± 5.0
13,Cn1nc(C(=O)NC(C)(C)COC(=O)CCl)c2ccc(-c3ccc(S(=O)(=O)N4CCC4)cc3)cc21 [QW-724],23.8 ± 3.7
14,COc1c(Cl)cc(-c2ccc3c(-n4cc(CCOC(=O)CCl)nn4)nn(C)c3c2)cc1Cl [QW-752],−6.6 ± 9.7
15,Cn1nc(-n2cc(CCOC(=O)CCl)nn2)c2ccc(-c3ccc(N4CCOCC4)c(Cl)c3)cc21 [QW-756],41.6 ± 9.0
16,Cn1nc(C(=O)NC(C)(C)C(C)(C)OC(=O)CCl)c2ccc(-c3ccc(OC(F)(F)F)c(Cl)c3)cc21 [QW-759],18.4 ± 8.3
17,CC(C)Oc1ncc(-c2ccc3c(-n4cc(C(C)(C)COC(=O)CCl)nn4)nn(C)c3c2)cn1 [QW-760],14.6 ± 12.4

# Same assay, conditions: 2.5 μM; generation 2
row,Structure (SMILES),GPX4% inhibition at 2.5 μM [%]
1,Cn1nc(C(=O)NC(C)(C)CC(=O)N2CCN(C(=O)CCl)CC2)c2ccc(Br)cc21 [QW-638],39.0 ± 26.2
2,C=C(CN1CCOCC1)C(=O)NCC(C)(C)NC(=O)c1nn(C)c2cc(Br)ccc12 [QW-648],15.8 ± 24.7
3,Cn1nc(C(=O)N2CCC(OC(=O)CCl)C2(C)C)c2ccc(Br)cc21 (centres unmarked) [QW-673],41.9 ± 63.4
4,Cn1nc(C(=O)NC(COC(=O)CCl)C(F)(F)F)c2ccc(Br)cc21 (centres unmarked) [QW-683],−37.4 ± 5.2
5,Cn1nc(-c2nnc(C(C)(OC(=O)CCl)C(F)(F)F)o2)c2ccc(Br)cc21 (centres unmarked) [QW-694],10.6 ± 5.8

# Same assay, conditions: 5 μM
row,Structure (SMILES),GPX4% inhibition at 5 μM [%]
1,COc1ccc(-c2ccc3c(C(=O)NC(C)(C)COC(=O)CCl)nn(C)c3c2)cc1F [QW-567],54.7 ± 3.4
2,CN(C)c1ccc(-c2ccc3c(C(=O)NC(C)(C)COC(=O)CCl)nn(C)c3c2)cc1 [QW-568],67.5 ± 3.9
3,COC(=O)c1ccc(-c2ccc3c(C(=O)NC(C)(C)COC(=O)CCl)nn(C)c3c2)cc1Cl [QW-571],82.5 ± 5.2
4,COC(=O)C=Cc1ccc(-c2ccc3c(C(=O)NC(C)(C)COC(=O)CCl)nn(C)c3c2)cc1 [QW-574],72.8 ± 7.7
5,Cn1nc(C(=O)NC(C)(C)COC(=O)CCl)c2ccc(-c3ccc(C=CCCl)cc3)cc21 [QW-575],35.9 ± 1.3
6,Cn1nc(C(=O)NC(C)(C)COC(=O)CCl)c2ccc(-c3cnn(Cc4ccccc4)c3)cc21 [QW-579],66.3 ± 3.4
7,CC(C)(COC(=O)CCl)NC(=O)c1n[nH]c2cc(-c3ccc(N4CCOCC4)c(Cl)c3)ccc12 [QW-583],70.9 ± 6.7
8,COc1ccc(-c2ccc3c(c2)c(C(=O)NC(C)(C)COC(=O)CCl)nn3C)cc1Cl [QW-584],9.5 ± 5.1
9,Cn1nc(C(=O)NC(C)(C)COC(=O)CCl)c2cc(-c3ccc(N4CCOCC4)c(Cl)c3)ccc21 [QW-585],23.3 ± 5.2
10,COc1ccc(F)c(-c2ccc3c(C(=O)NC(C)(C)COC(=O)CCl)nn(C)c3c2)c1 [QW-588],59.5 ± 5.7
11,COc1ccc(Cl)cc1-c1ccc2c(C(=O)NC(C)(C)COC(=O)CCl)nn(C)c2c1 [QW-590],53.5 ± 6.3
12,Cn1nc(C(=O)NC(C)(C)COC(=O)CCl)c2ccc(-c3ccc(C=O)cc3)cc21 [QW-591],69.4 ± 3.3
13,Cn1nc(C(=O)NC(C)(C)CNC(=O)CCl)c2ccc(-c3ccc(Cl)c(Cl)c3)cc21 [QW-636],76.4 ± 32.7
14,COC(=O)C=CC(=O)OCC(C)(C)NC(=O)c1nn(C)c2cc(-c3ccc(OC)c(Cl)c3)ccc12 [QW-646],30.6 ± 12.2
15,CN(C)CCCOc1ccc(-c2ccc3c(C(=O)NC(C)(C)COC(=O)CCl)nn(C)c3c2)cc1 [QW-647],20.9 ± 14.0
16,Cn1nc(C(=O)NC(C)(C)COC(=O)CCl)c2ccc(-c3cc4cc(F)ccc4n3C(=O)OC(C)(C)C)cc21 [QW-659],8.5 ± 13.4

# Same assay, conditions: concentration not given
row,Structure (SMILES),GPX4 inhibition rate
1,CN(C)c1ccc(-c2ccc3c(C(=O)NC(C)(C)COC(=O)CCl)nn(C)c3c2)cc1 [QW-568],50%
2,Cn1nc(C(=O)NC(C)(C)COC(=O)CCl)c2ccc(-c3ccc(OCC(F)(F)F)cc3)cc21 [QW-719],no inhibition on GPX4

# Reference: patent US20250248979A1, “NOVEL GPX4 INHIBITORS AND USES THEREOF” (THE TRUSTEES OF COLUMBIA UNIVERSITY IN THE CITY OF NEW YORK, priority 2022, published 2025)
